Data as given in patent US7259265B2, “Coumarin compounds and method for preparing and using the same” (Shanghai Institute of Organic Chemistry, Chinese Academy of …, priority 2003, dated 2007).
Converted amounts (≈) assume the structure as drawn. Where two headings read alike, the source gives them in different places.

Tests used:
candida Albicans 02-6 [1] = experiment: In vivo protective test in infected mice; settings: for ED50: infection 2.07 × 10^4 CFU/ml; for Survival: 10 mice, within 7 days after infection
Experimental: 2˜3 monocolonies of selected tested fungus were inoculated in Sabouraud liquor culture medium, which was cultured for 18 hours at 37° C., and then it was diluted with 5% sterilized dried yeast liquor for next uses.
3. Healthy mice (lived in Kunming, China) weighed 18˜22 g were divided into groups randomly with 5 mice in each group. The fungal liquor 0.5 ml was injected into a mouse, which was observed continuously for 7 days after infection. Mortality of the mice was recorded, and the minimum fungal dose that caused the mice be with a 100% mortality was named as MLD, which also was regarded as infection fungal dose in vivo protective test.
All test drugs were confected to requested concentration with 0.5% CMC including Fluoroconazole and 4,4′-biisofraxidin.
Test mice were divided into groups randomly according to gender and weight, 5 males and 5 females in each group. The infection fungal liquor 0.5 ml was injected into each mouse at the abdominal region at 0.5 ml per mouse. Two hours prior to the infection and 4 hours after infection, mice were orally administered with Fluoroconazole or 4,4′-biisofraxidin by intragastric gavage at various concentration. The comparative group was tested at the same time. Mortality was recorded within 7 days after infection, and effective dosage at half (median effective dose, ED50) and 95% confidence limit were calculated by the Bliss's method. Fluoroconazole and 4,4′-biisofraxidin were tested on their in vivo protection activity on candida Albicans 02-6 infected mice, and ED50 was calculated by the Bliss's method at 95% confidence limit.

candida Albicans [2] = experiment: Inhibiting zone on candida Albicans; format: cell-based; settings: at the concentration of 10 μg/ml
Experimental: [drawing 30] was tested by Jiangsu Hengrui Pharmaceutical Co., Ltd. The bioactivity against fungal infection of various antibiotics were tested.

[3] = Acute toxicity test in vivo in mice (Example 21); settings: for death: after testing 14 days, 14 mice (4,4′-biisofraxidin), 4 mice (Fluoroconazole)
[4] = Acute toxicity test, oral, ICR mice (Example 22); settings: for mortality: single oral dose (5 g/kg for 4,4′-biisofraxidin)
Excerpt: Acute toxicity of 4,4′-biisofraxidin and Fluoconazole were simultaneously evaluated and the toxicity reaction and mortality were observed and compared for values of LD50 for ICR mice which were orally administered with 4,4′-biisofraxidin or Fluoconazole.

[5] = system: S. Typhimurium TA97, TA98, TA 100, and TA102; experiment: Bacteria reverse mutation test; format: cell-based; settings: without S9
Experimental: According to the conditions of mutation test in the Guide Compilation of New Medicament (Western Medicament) Before Clinic (Pharmacy, Pharmacology, and Toxicology) (Edition July 1993, Bureau of Pharmaceutical Policy, Chinese Department of Health), 4,4′-biisofraxidin was tested at a dosage of 5, 50, 500, 1000, and 5000 μg/dish in the system without S9.

[6] = system: mice medulla polychromatic erythrocyte; experiment: Micronucleus test of mice medulla; format: in vivo, ICR mice
Experimental: Seventy ICR mice were randomly divided into 7 groups with 10 mice per group having 5 males and 5 females in each group. The maximum tolerance dose (MTD) of the mice was more than 5000 mg/kg for 4,4′-biisofraxidin by intragastric gavage, so that the maximum dosage was 5000 mg/kg. Four dosage groups were set up with dosage amount of 5000, 2500, 1250, and 625 mg/kg, one negative and one positive control group. The intragastric gavage was carried out at once per day consecutively for 2 days. Samples were taken at 24 hours after the last intragastric administration and inspected under microscope.

CHL cell = experiment: Chromosome aberration test of CHL mammal cell; format: cell-based; settings: for mutagenicity: 24 hours, -S9
Experimental: The purpose of the Example was to assess whether 4,4′-biisofraxidin caused the chromosome aberration of CHL cell. Firstly, Median Inhibitory Concentration (IC50) was obtained by general method and regarded as the maximum dosage. Then, the maximum dosage was diluted at 0.5 time at multiple times to get three dosage groups. The experiment was conducted at a —S9 system (without hamster liver S9 system). […] The antifungal compound was added to the cultured cell directly for 24 hours in order to observe whether 4,4′-biisofraxidin caused chromosome aberration in CHL cell. […] Therefore, 4,4′-biisofraxidin was a weak mutagen at a relatively high dosage under the test conditions.

candida Albicans 02-6 [7] = experiment: In vitro drug sensitivity MIC test; format: cell-based
Experimental: (§1) The tested fungi were confected to a suspension with normal saline, and further diluted to a suspension with the turbidity of more than 2.0 McFarland Standards (McF). Then, the suspension was diluted 100 times with normal saline, and diluted 10 times with RPMI1640, and the sample was diluted 2 times, which was cultured for 72 to 96 hours at a 96-well culture dish while being gently agitated and assayed for photoelectric colorimetric assay at 490 nm.
(§2) Tested fungi include Saccharomyces, candida Albicans 01-5, 01-1, 02-6, candida Albicans CMCC, Aspergillus niger, Cryptococcus neoformans, Trichophyton rubrum, and Trichophyton verrucosum and MIC Results were listed at Table 2.

Trichophyton verrucosum = experiment: In vitro drug sensitivity MIC test; format: cell-based
Experimental: as §1, §2

Aspergillus niger = experiment: In vitro drug sensitivity MIC test; format: cell-based
Experimental: as §1, §2

candida Albicans [8] = experiment: In vitro drug sensitivity MIC test; format: cell-based
Experimental: as §1, §2

Saccharomyces = experiment: In vitro drug sensitivity MIC test; format: cell-based
Experimental: as §1, §2

candida Albicans CMCC = experiment: In vitro drug sensitivity MIC test; format: cell-based
Experimental: as §1, §2

Cryptococcus neoformans = experiment: In vitro drug sensitivity MIC test; format: cell-based
Experimental: as §1, §2

candida Albicans 01-5 = experiment: In vitro drug sensitivity MIC test; format: cell-based
Experimental: as §1, §2

Trichophyton rubrum = experiment: In vitro drug sensitivity MIC test; format: cell-based
Experimental: as §1, §2

candida Albicans 01-1 = experiment: In vitro drug sensitivity MIC test; format: cell-based
Experimental: as §1, §2

[9] = Comparison of liver toxicity, serum ALT/AST of ICR mice; format: in vivo; settings: 1.6 g/kg oral, mean (values of each sample)
Experimental: ICR mice were orally administered with 4,4′-biisofraxidin or Fluoconazole at the same dosage of 1.6 g/kg, and blood samples were taken at 4 hours and 24 hours after the administration, and serum was separated from blood samples for testing liver indices of asparate aminotransferase test (AST) and alanine aminotransferase test (ALT).

[10] = drug dose 65.5 mg/kg, intragastric gavage
[11] = drug dose 89.2 mg/kg, intragastric gavage
[12] = drug dose 102.4 mg/kg, intragastric gavage
[13] = drug dose 128 mg/kg, intragastric gavage
[14] = drug dose 160 mg/kg, intragastric gavage
[15] = drug dose 200 mg/kg, intragastric gavage
[16] = candida Albicans, second strain without code (r8)

4,4′-biisofraxidin
95% confidence limit of ED50 (candida Albicans 02-6 [1]; Bliss's method): (127.97–130.7) mg/kg
ED50 (candida Albicans 02-6 [1]; Bliss's method, intragastric gavage): 149.50 mg/kg
Survival rate (%) (candida Albicans 02-6 [1]; [10]): 0%
Survival (candida Albicans 02-6 [1]; [10]): 0
Survival rate (%) (candida Albicans 02-6 [1]; [11]): 10%
Survival (candida Albicans 02-6 [1]; [11]): 1
Survival rate (%) (candida Albicans 02-6 [1]; [12]): 20%
Survival (candida Albicans 02-6 [1]; [12]): 3
Survival rate (%) (candida Albicans 02-6 [1]; [13]): 40%
Survival (candida Albicans 02-6 [1]; [13]): 4
Survival rate (%) (candida Albicans 02-6 [1]; [14]): 60%
Survival (candida Albicans 02-6 [1]; [14]): 6
Survival rate (%) (candida Albicans 02-6 [1]; [15]): 70%
Survival (candida Albicans 02-6 [1]; [15]): 7
protective effect in vivo (candida Albicans 02-6 [1]; intragastric gavage): obvious protective effect
inhibiting zone (candida Albicans [2]): 10 mm
death [3]: no death
MTD ([3]; mice, 14 days): more than 5 g/kg
half lethal dose (LD50) ([3]; mice, 14 days): undetectable
toxicity reaction ([4]; single oral dose): no obvious toxicity reaction
mortality [4]: 0/10
MTD ([4]; single oral dose, 14 days observation): higher than 5 g/kg
effect on growth of bacteria ([5]; high dose 5000 μg/dish): inhibit the growth
gene mutation ([5]; other dosages): couldn't induce gene mutation
effect on growth of bacteria ([5]; other four doses (5, 50, 500, 1000 μg/dish)): no obvious effect
micronucleus number ([6]; 5000, 2500, 1250, 625 mg/kg, intragastric, once per day for 2 days, 24 hours after last dose): no effect on inducing increase in micronucleus number
maximum tolerance dose (MTD) ([6]; mice, intragastric gavage): more than 5000 mg/kg
Median Inhibitory Concentration (IC50) (CHL cell; CHL cell): 248 µg/mL
mutagenicity (CHL cell; high dosage 248 μg/ml): 12%
mutagenicity (CHL cell; low to medium dosage (62, 124 μg/ml)): 1%
chromosome aberration conclusion (CHL cell; relatively high dosage): weak mutagen
MIC (candida Albicans 02-6 [7]): 32 µg/mL
MIC (Trichophyton verrucosum): 128 µg/mL
MIC (Aspergillus niger): 128 µg/mL
MIC (candida Albicans [8]; candida Albican, summary in the conclusion): ≥ 128 µg/mL
MIC (candida Albicans [8]; candida Albicans, first strain without code (r7)): 64 µg/mL
MIC (candida Albicans [8]; [16]): >128 µg/mL
MIC (Saccharomyces): >128 µg/mL
MIC (candida Albicans CMCC): >128 µg/mL
MIC (Cryptococcus neoformans): 64 µg/mL
MIC (candida Albicans 01-5; candida Albicans 01-5): 64 µg/mL
MIC (Trichophyton rubrum): 16 µg/mL
MIC (candida Albicans 01-1; candida Albicans 01-1): 64 µg/mL

OC(Cn1cncn1)(Cn1cncn1)c1ccc(F)cc1F [Fluoroconazole, reference compound]
ED50 (candida Albicans 02-6 [1]; Candida albicans, Bliss's method, intragastric gavage, read-out: ED50): 136 mg/kg
Survival rate (%) (candida Albicans 02-6 [1]; [10]): 0%
Survival (candida Albicans 02-6 [1]; [10]): 0
Survival rate (%) (candida Albicans 02-6 [1]; [11]): 20%
Survival (candida Albicans 02-6 [1]; [11]): 2
Survival rate (%) (candida Albicans 02-6 [1]; [12]): 40%
Survival (candida Albicans 02-6 [1]; [12]): 4
Survival rate (%) (candida Albicans 02-6 [1]; [13]): 40%
Survival (candida Albicans 02-6 [1]; [13]): 4
Survival rate (%) (candida Albicans 02-6 [1]; [14]): 60%
Survival (candida Albicans 02-6 [1]; [14]): 6
Survival rate (%) (candida Albicans 02-6 [1]; [15]): 80%
Survival (candida Albicans 02-6 [1]; [15]): 8
LD50 at 14 days ([3]; ICR, mouse, in vivo, 1.6 g/kg): ~1600 mg/kg
death [3]: 2
toxicity relative to 4,4′-biisofraxidin ([3]; mouse, in vivo): three times larger
toxicity reaction ([4]; single oral dose): dispirited and inert
mortality [4]: 2/4
ALT (U/L) ([9]; 4 hours after treatment): 84.5 (87, 82) U/L
AST (U/L) ([9]; 4 hours after treatment): 189.5 (155, 224) U/L
ALT (U/L) ([9]; 24 hours after treatment): 53.5 (40, 67) U/L
AST (U/L) ([9]; 24 hours after treatment): 99 (73, 125) U/L
MIC (candida Albicans 02-6 [7]; read-out: MIC): 64 µg/mL (≈ 209 µM)
MIC (Trichophyton verrucosum): 128 µg/mL (≈ 418 µM)
MIC (Aspergillus niger): > 128 µg/mL
MIC (candida Albicans [8]; Candida albicans): > 128 µg/mL
MIC (candida Albicans [8]; [16]): >128 µg/mL
MIC (Saccharomyces; read-out: MIC): 64 µg/mL (≈ 209 µM)
MIC (candida Albicans CMCC; read-out: MIC): 64 µg/mL (≈ 209 µM)
MIC (Cryptococcus neoformans; read-out: MIC): 16 µg/mL (≈ 52.2 µM)
MIC (candida Albicans 01-5; Candida albicans): 128 µg/mL (≈ 418 µM)
MIC (Trichophyton rubrum; read-out: MIC): 16 µg/mL (≈ 52.2 µM)
MIC (candida Albicans 01-1; Candida albicans): 128 µg/mL (≈ 418 µM)
